Data reported in publication PMC3997178 (Neuron, 2014).

Legend:
NMDA receptors = conditions: ref Frizelle et al., 2006; Urwyler et al., 1996; cited from earlier work
[1] = target: GluN1/GluN2A Lys738Met NMDA receptor (Rattus norvegicus, UniProt Q00959, K738M); test: TEVC mutational analysis, GluN2A Lys738Met; conditions: Lys738Met vs wild type
[2] = target: GluN1/GluN2A Phe416Ala NMDA receptor (Rattus norvegicus, UniProt Q00959, F416A); test: TEVC mutational analysis, GluN2A Phe416Ala; conditions: Phe416Ala vs wild type
[3] = target: GluN1/GluN2A Val734Ala NMDA receptor (Rattus norvegicus, UniProt Q00959, V734A); test: TEVC mutational analysis, GluN2A Val734Ala; conditions: Val734Ala vs wild type
[4] = target: GluN1/GluN2A Tyr730Phe NMDA receptor (Rattus norvegicus, UniProt Q00959, Y730F); test: TEVC mutational analysis, GluN2A Tyr730Phe; conditions: Tyr730Phe vs wild type
[5] = target: GluN1/GluN2A Tyr730Met NMDA receptor (Rattus norvegicus, UniProt Q00959, Y730M); test: TEVC mutational analysis, GluN2A Tyr730Met; conditions: Tyr730Met vs wild type
[6] = target: GluN1/GluN2A Val713Ala NMDA receptor (Rattus norvegicus, UniProt Q00959, V713A); test: TEVC mutational analysis, GluN2A Val713Ala; conditions: Val713Ala vs wild type
GluA2 Leu704Tyr = GluA2 Leu704Tyr (Rattus norvegicus, UniProt P19491, L504Y/L725Y); test: D-AP5 sensitivity of GluA2 Leu704 to tyrosine mutant; type: cell-based; conditions: data not shown
non-NMDA receptors = test: D-AP5 effect on non-NMDA receptors; type: cell-based; conditions: as high as 100 µM
[7] = target: GluN1/GluN2A Tyr737Ala NMDA receptor (Rattus norvegicus, UniProt Q00959, Y737A); test: TEVC mutational analysis, GluN2A Tyr737Ala; conditions: Tyr737Ala vs wild type
[8] = target: GluN1/GluN2A Tyr730Leu NMDA receptor (Rattus norvegicus, UniProt Q00959, Y730L); test: TEVC mutational analysis, GluN2A Tyr730Leu; conditions: Tyr730Leu vs wild type
GluK1 Met722Tyr = GluK1 Met722Tyr (Rattus norvegicus, UniProt P22756, M752Y); test: D-AP5 sensitivity of GluK1 Met722 to tyrosine mutant; type: cell-based; conditions: data not shown
[9] = system: GluN2A containing NMDA receptors; conditions: ref Frizelle et al., 2006; cited from earlier work
[10] = target: GluA2 AMPA receptors (Leu483Tyr, flip) (Rattus norvegicus, UniProt P19491, L504Y); test: TEVC inhibition of L-glutamate induced currents, non-desensitizing GluA2 mutant; type: cell-based
[11] = target: GluK1 kainate receptors (Tyr506Cys Leu768Cys) (Rattus norvegicus, UniProt P22756, L798C/Y536C); test: TEVC inhibition of L-glutamate induced currents, non-desensitizing GluK1 mutant; type: cell-based
[12] = target: GluN1/GluN2A NMDA receptors (Rattus norvegicus, UniProt P35439+Q00959); type: cell-based
[13] = target: GluN1/GluN2A NMDA receptors (Rattus norvegicus, UniProt Q00959); type: cell-based
[14] = system: GluN1/GluN2D NMDA receptors; test: TEVC inhibition of currents, GluN1/GluN2D in Xenopus oocytes; type: cell-based, rat
[15] = 100 µM compound in the presence of 30 µM glutamate

Sequence of GluK1 kainate receptors (Tyr506Cys Leu768Cys) (P22756 31-949 Y536C/L798C): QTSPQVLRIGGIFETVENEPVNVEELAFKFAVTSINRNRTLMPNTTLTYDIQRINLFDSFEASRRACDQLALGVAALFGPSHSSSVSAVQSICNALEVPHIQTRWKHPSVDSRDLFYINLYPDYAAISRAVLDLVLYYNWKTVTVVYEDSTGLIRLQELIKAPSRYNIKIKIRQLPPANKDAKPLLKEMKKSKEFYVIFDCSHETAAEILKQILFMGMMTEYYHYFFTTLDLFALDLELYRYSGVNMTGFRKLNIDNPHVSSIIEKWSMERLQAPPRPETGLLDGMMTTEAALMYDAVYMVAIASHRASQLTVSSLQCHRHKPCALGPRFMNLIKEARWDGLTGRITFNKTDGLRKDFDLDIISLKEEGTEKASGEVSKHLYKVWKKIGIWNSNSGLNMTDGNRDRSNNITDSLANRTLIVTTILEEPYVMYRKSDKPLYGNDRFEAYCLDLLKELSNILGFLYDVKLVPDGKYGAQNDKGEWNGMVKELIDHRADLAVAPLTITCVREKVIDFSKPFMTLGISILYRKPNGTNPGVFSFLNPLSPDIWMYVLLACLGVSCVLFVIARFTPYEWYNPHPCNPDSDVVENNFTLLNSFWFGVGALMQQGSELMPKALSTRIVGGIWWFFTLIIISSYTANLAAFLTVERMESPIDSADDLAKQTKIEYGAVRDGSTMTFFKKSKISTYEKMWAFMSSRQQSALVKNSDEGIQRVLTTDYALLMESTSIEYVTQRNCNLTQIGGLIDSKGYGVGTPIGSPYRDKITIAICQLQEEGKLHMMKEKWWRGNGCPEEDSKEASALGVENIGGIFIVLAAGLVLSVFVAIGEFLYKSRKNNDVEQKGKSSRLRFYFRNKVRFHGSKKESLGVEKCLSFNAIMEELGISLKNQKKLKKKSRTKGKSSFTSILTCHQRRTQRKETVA
Sequence of GluN1/GluN2A NMDA receptors (Rattus norvegicus, UniProt Q00959) (Q00959 20-1464 limits assumed, other chains not shown): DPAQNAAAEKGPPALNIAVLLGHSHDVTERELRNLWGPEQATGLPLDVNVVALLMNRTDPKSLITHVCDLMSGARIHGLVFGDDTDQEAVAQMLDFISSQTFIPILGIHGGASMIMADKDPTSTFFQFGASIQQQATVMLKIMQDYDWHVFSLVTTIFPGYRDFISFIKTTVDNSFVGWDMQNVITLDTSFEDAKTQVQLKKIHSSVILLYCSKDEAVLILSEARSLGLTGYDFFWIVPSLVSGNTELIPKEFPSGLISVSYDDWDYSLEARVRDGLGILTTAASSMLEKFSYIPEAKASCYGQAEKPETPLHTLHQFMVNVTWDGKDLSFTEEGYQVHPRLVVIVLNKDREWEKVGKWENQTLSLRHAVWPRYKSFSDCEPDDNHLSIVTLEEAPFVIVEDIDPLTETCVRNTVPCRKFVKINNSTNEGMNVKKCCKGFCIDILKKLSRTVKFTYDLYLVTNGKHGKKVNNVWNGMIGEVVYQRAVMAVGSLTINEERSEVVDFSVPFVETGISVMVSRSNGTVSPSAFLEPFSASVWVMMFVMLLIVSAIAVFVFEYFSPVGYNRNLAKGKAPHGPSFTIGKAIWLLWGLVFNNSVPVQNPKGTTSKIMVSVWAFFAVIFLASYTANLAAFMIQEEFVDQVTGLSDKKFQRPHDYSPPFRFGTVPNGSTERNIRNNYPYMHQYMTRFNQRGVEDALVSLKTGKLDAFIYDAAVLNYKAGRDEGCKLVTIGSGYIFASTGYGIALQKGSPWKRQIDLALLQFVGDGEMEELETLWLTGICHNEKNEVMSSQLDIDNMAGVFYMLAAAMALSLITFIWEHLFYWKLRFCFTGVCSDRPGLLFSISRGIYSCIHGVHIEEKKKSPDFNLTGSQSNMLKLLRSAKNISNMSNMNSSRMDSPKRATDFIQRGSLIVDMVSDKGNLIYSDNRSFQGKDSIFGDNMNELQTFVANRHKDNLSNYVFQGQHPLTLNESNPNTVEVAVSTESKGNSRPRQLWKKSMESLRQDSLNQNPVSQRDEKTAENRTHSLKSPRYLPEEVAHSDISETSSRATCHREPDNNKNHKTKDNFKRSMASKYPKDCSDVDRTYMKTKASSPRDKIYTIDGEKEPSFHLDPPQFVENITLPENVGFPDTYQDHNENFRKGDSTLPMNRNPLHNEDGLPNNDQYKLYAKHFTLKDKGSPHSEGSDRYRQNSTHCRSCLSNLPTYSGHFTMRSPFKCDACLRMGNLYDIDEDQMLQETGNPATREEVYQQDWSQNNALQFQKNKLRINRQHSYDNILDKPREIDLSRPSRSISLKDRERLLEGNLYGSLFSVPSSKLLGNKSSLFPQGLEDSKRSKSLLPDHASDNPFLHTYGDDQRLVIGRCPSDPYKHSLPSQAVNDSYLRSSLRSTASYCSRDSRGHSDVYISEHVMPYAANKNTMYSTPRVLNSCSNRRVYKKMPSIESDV
Sequence of GluN1/GluN2A Lys738Met NMDA receptor (Q00959 20-1464 K738M limits assumed, other chains not shown): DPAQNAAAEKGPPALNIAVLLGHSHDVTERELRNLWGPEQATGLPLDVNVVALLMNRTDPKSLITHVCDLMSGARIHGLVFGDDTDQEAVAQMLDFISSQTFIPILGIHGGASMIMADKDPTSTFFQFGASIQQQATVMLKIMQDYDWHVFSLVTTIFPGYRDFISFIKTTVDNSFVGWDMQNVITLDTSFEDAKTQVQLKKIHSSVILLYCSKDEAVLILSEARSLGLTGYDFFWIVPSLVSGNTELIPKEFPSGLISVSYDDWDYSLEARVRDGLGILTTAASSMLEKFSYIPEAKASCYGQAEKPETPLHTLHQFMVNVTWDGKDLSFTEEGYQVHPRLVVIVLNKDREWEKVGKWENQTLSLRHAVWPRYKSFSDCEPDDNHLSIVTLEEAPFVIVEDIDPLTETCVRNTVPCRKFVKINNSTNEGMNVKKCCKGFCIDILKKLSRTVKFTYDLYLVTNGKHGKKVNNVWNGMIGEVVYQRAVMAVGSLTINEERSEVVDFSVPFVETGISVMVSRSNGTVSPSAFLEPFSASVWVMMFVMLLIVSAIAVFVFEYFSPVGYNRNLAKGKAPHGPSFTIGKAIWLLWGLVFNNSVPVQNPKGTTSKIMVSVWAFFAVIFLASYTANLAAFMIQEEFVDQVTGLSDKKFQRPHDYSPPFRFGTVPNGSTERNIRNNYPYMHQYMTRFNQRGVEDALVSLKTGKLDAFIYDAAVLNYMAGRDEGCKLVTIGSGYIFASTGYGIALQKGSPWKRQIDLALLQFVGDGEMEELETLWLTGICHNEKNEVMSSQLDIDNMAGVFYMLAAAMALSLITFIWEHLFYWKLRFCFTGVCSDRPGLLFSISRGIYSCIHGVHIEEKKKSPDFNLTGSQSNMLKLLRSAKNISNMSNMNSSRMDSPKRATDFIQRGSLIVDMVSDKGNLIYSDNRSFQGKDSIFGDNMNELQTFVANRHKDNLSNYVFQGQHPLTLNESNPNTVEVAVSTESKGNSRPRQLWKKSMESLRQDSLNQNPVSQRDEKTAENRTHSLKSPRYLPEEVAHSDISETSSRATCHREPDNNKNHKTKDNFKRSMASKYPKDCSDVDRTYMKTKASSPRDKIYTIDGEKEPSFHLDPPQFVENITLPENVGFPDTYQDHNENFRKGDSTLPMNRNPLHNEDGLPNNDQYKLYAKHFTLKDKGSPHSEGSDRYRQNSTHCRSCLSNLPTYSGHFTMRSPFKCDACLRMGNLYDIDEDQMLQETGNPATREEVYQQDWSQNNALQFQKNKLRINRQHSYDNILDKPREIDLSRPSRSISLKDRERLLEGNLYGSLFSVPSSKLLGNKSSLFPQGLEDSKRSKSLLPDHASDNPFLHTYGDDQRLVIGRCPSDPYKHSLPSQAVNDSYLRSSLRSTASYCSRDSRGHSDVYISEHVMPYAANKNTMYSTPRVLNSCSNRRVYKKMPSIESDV
Sequence of GluA2 AMPA receptors (Leu483Tyr, flip) (P19491 22-883 isoform P19491-2 L504Y limits assumed): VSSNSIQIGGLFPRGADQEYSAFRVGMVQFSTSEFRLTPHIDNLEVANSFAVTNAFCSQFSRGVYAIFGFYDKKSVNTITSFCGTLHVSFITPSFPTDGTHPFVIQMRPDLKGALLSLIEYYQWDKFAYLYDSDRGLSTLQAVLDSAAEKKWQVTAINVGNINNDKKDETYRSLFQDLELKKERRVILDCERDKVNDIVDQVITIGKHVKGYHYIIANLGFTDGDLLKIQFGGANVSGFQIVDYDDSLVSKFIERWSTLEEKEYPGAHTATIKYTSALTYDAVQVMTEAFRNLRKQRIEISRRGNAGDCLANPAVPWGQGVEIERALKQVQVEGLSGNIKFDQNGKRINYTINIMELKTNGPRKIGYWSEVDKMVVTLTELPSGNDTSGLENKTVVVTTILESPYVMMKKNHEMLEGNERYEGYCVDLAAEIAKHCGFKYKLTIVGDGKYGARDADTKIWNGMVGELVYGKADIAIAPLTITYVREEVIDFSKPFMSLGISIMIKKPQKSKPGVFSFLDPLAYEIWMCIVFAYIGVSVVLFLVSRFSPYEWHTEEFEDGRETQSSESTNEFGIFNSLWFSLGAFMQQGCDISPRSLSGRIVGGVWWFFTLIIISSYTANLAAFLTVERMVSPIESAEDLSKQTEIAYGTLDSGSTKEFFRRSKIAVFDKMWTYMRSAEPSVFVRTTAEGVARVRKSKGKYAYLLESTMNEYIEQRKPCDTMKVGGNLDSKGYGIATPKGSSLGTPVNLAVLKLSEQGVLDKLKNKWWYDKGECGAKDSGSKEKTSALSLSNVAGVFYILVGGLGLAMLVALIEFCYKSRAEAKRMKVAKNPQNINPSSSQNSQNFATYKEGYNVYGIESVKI
Sequence of GluK1 Met722Tyr (P22756 31-949 M752Y): as the sequence (P22756 31-949 Y536C/L798C) above, with C506Y, M722Y, C768L counted along it
Sequence of GluA2 Leu704Tyr (P19491 22-883 isoform P19491-2 L504Y/L725Y): as the sequence (P19491 22-883 isoform P19491-2 L504Y limits assumed) above, with L704Y counted along it

Structure (SMILES): N[C@@H](Cc1cc(-c2ccc(Cl)cc2Cl)cc(CP(=O)(O)O)c1O)C(=O)O [SDZ220-040]
- potency (NMDA receptors): nanomolar potency

Structure (SMILES): N[C@H](CCCP(=O)(O)O)C(=O)O [D-AP5, D-(−)-2-Amino-5-phosphonopentanoic acid]
- effect of mutation on potency [1]: only minor effects
- effect of mutation on sensitivity [2]: minor effects
- effect of mutation on potency [3]: only minor effects
- change in sensitivity [4]: five-fold decrease in sensitivity
- fold increase in Ki [5]: ~ 80 fold
- effect of mutation on sensitivity [6]: minor effects
- sensitivity to D-AP5 (GluA2 Leu704Tyr): does not confer sensitivity
- inhibitory effect (non-NMDA receptors): no inhibitory effect
- effect of mutation on potency [7]: only minor effects
- fold increase in Ki [8]: ~ 20 fold
- sensitivity to D-AP5 (GluK1 Met722Tyr): does not confer sensitivity

Structure (SMILES): C[C@H](N[C@@H](c1cccc2[nH]c(=O)c(=O)[nH]c12)P(=O)(O)O)c1ccc(Br)cc1 [NVP-AAM077]
- potency (NMDA receptors): nanomolar potency
- specificity toward GluN2A containing over GluN2B containing NMDA receptors [9]: 5 fold

Structure (SMILES): O=C(O)C1NCCN(C(=O)c2ccc3c(ccc4ccccc43)c2)C1C(=O)O (single isomer, unassigned; (-)) [(−)-PPDA, 1-(Phenanthrene-2-carbonyl)piperazine-2,3-dicarboxylic acid]
- effect of mutation on potency [1]: increases the (−)-PPDA sensitivity
- Ki [10]: 7850 nM
- inhibition of current [10, 15]: completely inhibited
- effect of mutation on sensitivity [2]: minor effects
- effect of mutation on potency [3]: decreases the (−)-PPDA sensitivity
- change in sensitivity [4]: increase in (−)-PPDA sensitivity
- Ki [11]: 1170 nM
- inhibition of current [11, 15]: completely inhibited
- change in sensitivity [5]: little or no change
- effect of mutation on sensitivity [6]: minor effects
- Ki [12]: 820 nM
- inhibition of current ([13]; 100 µM compound in the presence of agonists (100 µM glycine/30 µM glutamate)): completely inhibited
- effect of mutation on potency [7]: decreases the (−)-PPDA sensitivity
- change in sensitivity [8]: little or no change

Structure (SMILES): O=C(O)C1NCCN(C(=O)c2ccc3c(ccc4ccccc43)c2)C1C(=O)O (single isomer, unassigned; (+)) [(+)-PPDA, 1-(Phenanthrene-2-carbonyl)piperazine-2,3-dicarboxylic acid]
- fold weaker potency than (−)-PPDA ([13]; dose-response inhibition, TEVC): 6–7 fold
- fold higher potency toward GluN1/GluN2D than GluN1/GluN2A [14]: 5–6 fold
- fold weaker potency than (−)-PPDA ([14]; dose-response inhibition): 6–7 fold
